One block for each molecule: values may come before it.
Legend:
[1] = system: β3CS-1 cells; experiment: Cell-mediated [3H]-collagen IV degradation via MMP2; type: cell-based, hamster; conditions: 4 nM active MMP2, 10 μM compound, FIG. 3A
Procedure: (§1) Wells had been coated overnight with 50 μl of 0.414 mCi/ml [^3H]-collagen IV (ICN Biochemicals, Costa Mesa, Calif.) and washed extensively until the radioactivity in the recovered wash solution reached background. Alternatively, cells were treated as above in the absence of MMP2, or the MMP2 solutions were added directly to the wells without cells, as controls. Collagen IV degradation was quantitated by measuring the radioactivity released into the 50 μl of culture medium as determined in a liquid scintillation counter. For the assessment of biotinylated MMP2 binding to CS-1 cells, cells were suspended in adhesion buffer and incubated with 12 nM bMMP2 for 45 minutes at 37° C. in the presence or absence of 10 μM Compound 1 or Compound 12. Cells were subsequently washed before lysis and processing for SDS-PAGE and immunoblotting with an anti-biotin mAb.

[2] = target: T1, MMP2 (Homo sapiens, UniProt P08253); experiment: [3H]-collagen IV degradation by purified active MMP2 without cells; type: biochemical; conditions: 4 nM active MMP2, 10 μM compound, no cells
T1 construct: purchased Calbiochem (La Jolla, Calif.)
T1 sequence (P08253 110-660): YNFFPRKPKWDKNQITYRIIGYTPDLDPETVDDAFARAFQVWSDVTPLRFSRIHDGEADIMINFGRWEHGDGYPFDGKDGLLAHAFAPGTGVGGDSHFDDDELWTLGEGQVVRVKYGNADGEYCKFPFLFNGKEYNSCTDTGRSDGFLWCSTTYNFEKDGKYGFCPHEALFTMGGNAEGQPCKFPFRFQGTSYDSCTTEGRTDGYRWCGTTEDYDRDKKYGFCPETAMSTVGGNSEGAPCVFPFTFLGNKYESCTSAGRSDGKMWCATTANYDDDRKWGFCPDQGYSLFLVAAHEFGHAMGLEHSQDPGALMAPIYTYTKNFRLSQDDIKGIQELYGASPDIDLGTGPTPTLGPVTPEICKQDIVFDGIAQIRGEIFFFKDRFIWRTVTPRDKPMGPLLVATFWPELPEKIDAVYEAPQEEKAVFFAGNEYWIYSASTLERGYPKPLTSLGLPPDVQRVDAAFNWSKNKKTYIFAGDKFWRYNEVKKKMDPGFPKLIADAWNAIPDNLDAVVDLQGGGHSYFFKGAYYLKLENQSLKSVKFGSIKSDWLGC
Procedure: as §1, with “CS-1 cells or β3CS-1 cells were incubated in adhesion buffer fibroblast basal medium (FBM) supplemented with 0.5% bovine serum albumin (BSA), 0.4 mM MnCl2 and 10 μg/ml aprotinin) containing either 4 nM purified active MMP2 alone, or in combination with 10 μM Compound 1 or Compound 12 for 45 minutes at 37° C. prior to washing and addition to the [^3H]-collagen IV-coated wells. Wells” for “Wells”

[3] = target: T2, integrin αvβ3 (Homo sapiens, UniProt P05106+P06756); experiment: Direct binding of [14C]-Compound 1 to immobilized integrin, solid phase
T2 construct: purchased Merck KGaA or Chemicon International
Procedure: (§2) Dried wells were separated and immersed in BetaMax liquid scintillation cocktail (ICN Biochemicals, Costa Mesa, Calif.) for quantitation. From this binding curve a subsaturating concentration (3 μM) of [^14C]-Compound 1 was examined in the presence and absence of a 25-fold molar excess ([…]) of unlabeled Compound 1 or Compound 12, or 100 μM cyclic RGD or RAD peptide. Control was bVN, used and detected as described above.

[4] = target: T1, MMP2; experiment: Direct binding of Compound 1 to MMP2 coated on the microtiter well; conditions: data not shown
[5] = target: T3, MMP2 binding to integrin αvβ3 (Homo sapiens, UniProt P05106+P06756); experiment: Solid phase integrin binding assay: biotinylated MMP2 binding to immobilized integrin; conditions: bMMP2 3-5 nM, FIG. 2A
T3 construct: purchased Merck KGaA or Chemicon International (integrin); Chemicon (proMMP2) or Calbiochem (active MMP2)
Procedure: (§3) Purified integrins were adsorbed overnight onto microtiter wells (1-5 μg/ml, […]) prior to blocking with Caseinblocker (Pierce, Rockford, Ill.). Purified biotinylated MMP2 (bMMP2, 3-5 nM) in binding buffer (50 mM Tris, pH 8, 150 mM NaCl, 1 mM MgCl2, 0.5 mM MnCl2) was added to the wells in the presence or absence of Compound 1, Compound 12, cyclic RGD or RAD peptides, or buffer vehicle alone. Control wells received no integrin. Biotinylated vitronectin (bVN, 1 μg/ml) was used as a reference. Bound protein was detected with HRP-anti-biotin mAb and quantitated at 450 nm with 3,3′,5,5′-tetramethylbenzidine solution (TMB; a substrate for the peroxidase) (BioRad, Hercules, Calif.).

[6] = system: αvβ3-negative CS-1 melanoma tumors; experiment: Tumor growth assay on chick CAM; type: in vivo
Procedure: Primary tumors were grown on CAMs of 9-day embryos by implantation 5×10^6 CS-1 cells and incubation for 7 days. At this point, 50 mg sections of these tumors were subcultured onto fresh 9-day CAMs and allowed to implant for 24 hours before a single intravenous (IV) injection with 100 μl of 100 μM of test compounds in Hank's Balanced Saline Solution (HBSS). Buffer alone was used as control. Tumors were incubated for a total of 10 days, harvested and trimmed free of excess stromal tissue before determining wet weight and processing for histology.
Snap-frozen CS-1 tumor sections were fixed with 4% paraformaldehyde and permeablized with 0.1% Triton X-100. Sections were blocked with 5% bovine serum albumin (BSA) in phosphate buffered saline (PBS) prior to staining with an anti-vWF pAb and visualization with an Alexa 568-conjugated anti-rabbit secondary antibody. Samples were analyzed on a MRC1024 confocal microscope (BioRad, Hercules, Calif.). Blood vessel density was quantitated with a 20×objective on four fields per section and four tumors per condition.

[7] = system: CS-1 cells; experiment: Biotinylated MMP2 cell-binding assay, β3-negative cells; type: cell-based, hamster; conditions: 12 nM bMMP2, 10 μM compound; FIG. 3B
Procedure: as §1

[8] = system: bFGF-induced angiogenesis on chick CAM; experiment: Chick chorioallantoic membrane (CAM) angiogenesis assay; type: in vivo; conditions: 10 day chick CAM, 3 μg/ml bFGF, 20 μl of 3 μM compound, 3 days; FIGS. 4A, 4B
Procedure: (§4) Angiogenesis was assessed essentially as described previously (Cell, 85, 683-93 (1996); Cell, 92, 391-400 (1998)). After stimulation with 3 μg/ml of basic fibroblast growth factor (bFGF), 10 day chick embryo CAMs were treated with 20 μl of 3 μM Compound 1 or Compound 12. Three days after induction, the CAMs were quantitated in a blind evaluation. CAMs from each group were pooled, minced, and extracted with 50 mM Tris, […], 0.1% Triton X-100 containing COMPLETE-brand protease inhibitor cocktail without EDTA (Boehringer, Mannheim, Germany) prior to analysis by zymography.

[9] = target: integrin α5β1 (Homo sapiens, UniProt P05556+P08648); experiment: Direct binding of [14C]-Compound 1 to immobilized control integrin, solid phase
Procedure: as §2

[10] = system: MMP2; experiment: Zymography of chick CAM lysates; type: in vivo; conditions: FIG. 4C
Procedure: as §4
Zymography. Chick CAM lysates were prepared as described above and equal quantities of protein were separated in the absence of reducing agents or boiling on polyacrylamide gels embedded with 0.2% gelatin. The gels were washed with 2% Triton X-100, followed by extensive washing with water prior to overnight incubation at 37° C. in collagenase buffer (50 mM Tris 7.4, 200 mM NaCl 10 mM CaCl2). Gelatinolytic activity was visualized by staining the gels with 0.5% Coomassie blue.

[11] = system: β3CS-1 cells; experiment: Biotinylated MMP2 cell-binding assay, β3-positive cells; type: cell-based, hamster
Procedure: CS-1 cells or β3CS-1 cells were incubated in adhesion buffer fibroblast basal medium (FBM) supplemented with 0.5% bovine serum albumin (BSA), 0.4 mM MnCl2 and 10 μg/ml aprotinin) containing either 4 nM purified active MMP2 alone, or in combination with 10 μM Compound 1 or Compound 12 for 45 minutes at 37° C. prior to washing and addition to the [^3H]-collagen IV-coated wells. Wells had been coated overnight with 50 μl of 0.414 mCi/ml [^3H]-collagen IV (ICN Biochemicals, Costa Mesa, Calif.) and washed extensively until the radioactivity in the recovered wash solution reached background. Alternatively, cells were treated as above in the absence of MMP2, or the MMP2 solutions were added directly to the wells without cells, as controls. Collagen IV degradation was quantitated by measuring the radioactivity released into the 50 μl of culture medium as determined in a liquid scintillation counter. […]
Immunoblotting. Equal quantities of protein were separated by SDS-PAGE under reducing conditions and electroblotted to an Immobilon-P membrane (Millipore, Bedford, Md.). The membrane was blocked and immobilized proteins were detected by incubation with an antigen-specific primary antibody, followed by an HRP-conjugated secondary antibody as required. […]

[12] = system: CS-1 melanoma cells; experiment: In vitro growth of melanoma cells in co-culture with compound; type: cell-based, hamster; conditions: co-culture with the compound; data not shown
[13] = target: T4, MMP2 and tissue inhibitor of metalloproteinase 2 (TIMP2) (Homo sapiens, UniProt P08253); experiment: Binding between MMP2 and TIMP2
T4 sequence (P08253 110-660): T1 sequence (P08253 110-660)

[14] = target: T5, vitronectin binding to integrin αvβ3 (Homo sapiens, UniProt P05106+P06756); experiment: Solid phase integrin binding assay: biotinylated vitronectin (bVN) binding to immobilized integrin
T5 construct: purchased Merck KGaA or Chemicon International (integrin)
Procedure: as §3, §2

T2 sequence (P06756 31-889 limits assumed): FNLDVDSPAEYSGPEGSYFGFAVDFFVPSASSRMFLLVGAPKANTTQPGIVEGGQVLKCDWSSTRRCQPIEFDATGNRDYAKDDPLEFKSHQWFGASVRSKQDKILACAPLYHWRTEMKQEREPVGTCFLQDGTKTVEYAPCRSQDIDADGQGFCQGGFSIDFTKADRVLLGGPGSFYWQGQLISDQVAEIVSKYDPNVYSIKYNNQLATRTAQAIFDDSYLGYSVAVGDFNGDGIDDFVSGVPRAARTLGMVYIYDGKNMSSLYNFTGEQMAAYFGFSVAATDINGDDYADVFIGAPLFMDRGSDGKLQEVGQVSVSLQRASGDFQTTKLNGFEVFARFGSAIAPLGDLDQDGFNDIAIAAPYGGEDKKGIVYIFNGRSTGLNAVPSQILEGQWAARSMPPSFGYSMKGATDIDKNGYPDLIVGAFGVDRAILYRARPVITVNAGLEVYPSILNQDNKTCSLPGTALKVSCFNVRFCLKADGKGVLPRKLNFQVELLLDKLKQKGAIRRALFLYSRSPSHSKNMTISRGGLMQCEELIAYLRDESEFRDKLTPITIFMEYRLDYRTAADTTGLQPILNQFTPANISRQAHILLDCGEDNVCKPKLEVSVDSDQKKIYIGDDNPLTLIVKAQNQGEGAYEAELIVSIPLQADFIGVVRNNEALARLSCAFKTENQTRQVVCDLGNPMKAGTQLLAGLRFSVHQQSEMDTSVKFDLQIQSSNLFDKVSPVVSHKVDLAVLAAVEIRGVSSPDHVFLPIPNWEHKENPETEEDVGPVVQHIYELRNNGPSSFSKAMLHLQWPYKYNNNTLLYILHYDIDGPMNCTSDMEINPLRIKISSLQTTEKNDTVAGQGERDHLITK
T2 sequence (P06756 891-1048 limits assumed): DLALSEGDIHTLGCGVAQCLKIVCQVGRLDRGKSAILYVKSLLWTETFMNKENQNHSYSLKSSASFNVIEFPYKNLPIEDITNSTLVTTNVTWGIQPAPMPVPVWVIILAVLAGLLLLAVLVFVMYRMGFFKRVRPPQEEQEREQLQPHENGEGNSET
T2 sequence (P05106 27-788): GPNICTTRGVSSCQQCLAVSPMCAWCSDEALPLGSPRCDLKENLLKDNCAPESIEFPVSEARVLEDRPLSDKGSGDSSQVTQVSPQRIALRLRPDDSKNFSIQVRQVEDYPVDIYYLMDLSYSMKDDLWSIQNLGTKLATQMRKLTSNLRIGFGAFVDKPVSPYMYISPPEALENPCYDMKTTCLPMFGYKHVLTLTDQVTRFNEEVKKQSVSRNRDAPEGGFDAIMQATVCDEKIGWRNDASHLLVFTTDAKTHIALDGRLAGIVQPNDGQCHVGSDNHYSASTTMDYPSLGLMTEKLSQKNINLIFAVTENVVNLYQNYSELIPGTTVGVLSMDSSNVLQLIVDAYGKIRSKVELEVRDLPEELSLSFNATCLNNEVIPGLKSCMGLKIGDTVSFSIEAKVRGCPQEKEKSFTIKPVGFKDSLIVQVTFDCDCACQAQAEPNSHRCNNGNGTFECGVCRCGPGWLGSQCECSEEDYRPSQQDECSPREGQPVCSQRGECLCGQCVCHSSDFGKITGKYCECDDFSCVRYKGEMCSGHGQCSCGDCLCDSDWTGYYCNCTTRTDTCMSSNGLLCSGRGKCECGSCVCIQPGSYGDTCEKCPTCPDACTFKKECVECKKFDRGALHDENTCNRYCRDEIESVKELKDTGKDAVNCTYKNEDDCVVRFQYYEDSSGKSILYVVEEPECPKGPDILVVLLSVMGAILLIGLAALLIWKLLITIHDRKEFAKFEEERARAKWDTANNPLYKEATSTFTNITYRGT
T3 sequence (P06756 31-889 limits assumed): as the sequence (P06756 31-889 limits assumed) above
T3 sequence (P06756 891-1048 limits assumed): as the sequence (P06756 891-1048 limits assumed) above
T3 sequence (P05106 27-788): as the sequence (P05106 27-788) above
T5 sequence (P06756 31-889 limits assumed): as the sequence (P06756 31-889 limits assumed) above
T5 sequence (P06756 891-1048 limits assumed): as the sequence (P06756 891-1048 limits assumed) above
T5 sequence (P05106 27-788): as the sequence (P05106 27-788) above
Sequence of integrin α5β1 (P08648 42-894 limits assumed): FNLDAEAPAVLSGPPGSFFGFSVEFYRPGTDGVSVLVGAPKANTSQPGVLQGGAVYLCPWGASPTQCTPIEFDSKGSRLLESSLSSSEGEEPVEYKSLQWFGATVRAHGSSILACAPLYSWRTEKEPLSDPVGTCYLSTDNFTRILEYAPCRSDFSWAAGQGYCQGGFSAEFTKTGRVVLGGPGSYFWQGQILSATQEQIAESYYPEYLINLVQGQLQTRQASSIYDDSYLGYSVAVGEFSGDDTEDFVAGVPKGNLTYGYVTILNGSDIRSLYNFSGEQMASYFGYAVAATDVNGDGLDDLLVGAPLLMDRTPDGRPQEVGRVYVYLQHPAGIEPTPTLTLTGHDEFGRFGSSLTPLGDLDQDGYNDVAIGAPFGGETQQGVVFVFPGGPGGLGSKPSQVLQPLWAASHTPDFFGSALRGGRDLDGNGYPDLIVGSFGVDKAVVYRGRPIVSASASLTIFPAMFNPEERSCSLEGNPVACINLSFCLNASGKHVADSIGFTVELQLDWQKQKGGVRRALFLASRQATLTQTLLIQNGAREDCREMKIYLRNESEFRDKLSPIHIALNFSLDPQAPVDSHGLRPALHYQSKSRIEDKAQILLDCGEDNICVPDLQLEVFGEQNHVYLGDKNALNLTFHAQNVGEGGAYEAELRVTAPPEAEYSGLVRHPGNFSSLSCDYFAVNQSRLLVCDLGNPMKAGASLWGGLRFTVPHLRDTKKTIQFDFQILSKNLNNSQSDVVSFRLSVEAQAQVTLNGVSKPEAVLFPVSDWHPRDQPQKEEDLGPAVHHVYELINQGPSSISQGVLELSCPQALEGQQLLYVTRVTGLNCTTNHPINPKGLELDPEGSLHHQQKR
Sequence of integrin α5β1 (P08648 895-1049 limits assumed): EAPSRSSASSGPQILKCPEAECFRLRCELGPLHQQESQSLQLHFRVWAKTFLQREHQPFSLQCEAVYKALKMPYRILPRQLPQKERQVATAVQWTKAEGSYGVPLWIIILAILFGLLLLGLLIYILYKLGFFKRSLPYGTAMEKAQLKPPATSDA
Sequence of integrin α5β1 (P05556 21-798): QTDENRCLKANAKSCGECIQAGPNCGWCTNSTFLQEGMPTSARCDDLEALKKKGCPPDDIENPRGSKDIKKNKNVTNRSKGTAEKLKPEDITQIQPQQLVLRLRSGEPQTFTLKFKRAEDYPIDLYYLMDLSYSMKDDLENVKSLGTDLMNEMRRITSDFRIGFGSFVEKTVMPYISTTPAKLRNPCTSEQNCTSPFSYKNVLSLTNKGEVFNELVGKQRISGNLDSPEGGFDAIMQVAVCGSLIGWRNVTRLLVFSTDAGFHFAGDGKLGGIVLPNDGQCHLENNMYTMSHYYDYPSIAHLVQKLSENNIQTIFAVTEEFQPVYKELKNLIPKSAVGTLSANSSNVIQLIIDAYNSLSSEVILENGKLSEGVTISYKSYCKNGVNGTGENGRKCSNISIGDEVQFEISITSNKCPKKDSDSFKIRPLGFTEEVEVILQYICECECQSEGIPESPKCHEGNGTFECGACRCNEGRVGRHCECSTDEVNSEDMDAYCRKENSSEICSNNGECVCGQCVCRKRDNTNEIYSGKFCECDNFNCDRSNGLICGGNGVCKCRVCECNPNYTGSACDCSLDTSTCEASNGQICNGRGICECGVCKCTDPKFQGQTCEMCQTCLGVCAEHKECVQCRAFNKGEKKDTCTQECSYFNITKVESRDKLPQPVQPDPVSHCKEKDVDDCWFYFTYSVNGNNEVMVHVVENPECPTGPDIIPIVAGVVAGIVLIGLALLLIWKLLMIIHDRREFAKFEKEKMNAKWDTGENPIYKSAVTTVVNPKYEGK

Molecule: O=C(CNC(=O)c1cccc(C(=O)NCC(=O)NCCCC[C@H](NC(=O)OCc2ccc(C(F)(F)F)cc2)C(=O)O)c1)NCCCC[C@H](NC(=O)OCc1ccc(C(F)(F)F)cc1)C(=O)O [Compound 1, N,N^1-Bis-[(5-(S)-carboxy-5-[((4-trifluoromethyl)benzyloxycarbonyl)amino]-pentyl)carboxamidomethyl]benzene-1,3-dicarboxamide]
Effect on MMP2-enhanced cell-mediated [3H]collagen IV degradation [1]: specifically abolished
Effect on [3H]collagen IV degradation by purified active MMP2 in the absence of cells [2]: still able to degrade
Inhibition of [14C]-Compound 1 binding to integrin αvβ3 by unlabeled compound ([3]; 3 μM [14C]-Compound 1, 25-fold molar excess of unlabeled compound, FIG. 2C): inhibited
Direct binding to integrin αvβ3 ([3]; [14C]-labeled Compound 1, titration, FIG. 2B): bound directly
Direct binding to MMP2 coated on the well [4]: no binding
Effect on MMP2 binding to integrin αvβ3 [5]: completely abrogated
Overall tumor blood vessel density ([6]; anti-vWF immunofluorescence of tumor sections): gross reduction
Cell death within the tumor mass ([6]; single IV injection, 100 μl of 100 μM): significant cell death
Tumor weight ([6]; single IV injection, 100 μl of 100 μM, 10 days, wet weight): significantly retarded
Growth of transplanted CS-1 melanoma tumors on chick CAM ([6]; single IV injection, 100 μl of 100 μM, 10 days, FIG. 5A): significantly retarded
Tumor surface vasculature ([6]; single IV injection, 100 μl of 100 μM, FIG. 5A): gross reduction
Effect on biotinylated MMP2 binding to β3-negative CS-1 cells [7]: not diminished
Effect on development of new blood vessels in bFGF-stimulated CAM [8]: almost completely abolished
Direct binding to control integrin α5β1 ([9]; [14C]-labeled Compound 1, FIG. 2B): minimal interaction
Direct binding to integrin α5β1 at higher concentrations ([9]; higher concentrations of compound, data not shown): negligible binding
Levels of active MMP2 (62 kDa) in CAM tissues, treated versus untreated [10]: equivalent levels of active MMP2
Overall levels of MMP2 in CAM lysates [10]: unaffected
Effect on enhanced biotinylated MMP2 binding to β3CS-1 cells ([11]; 12 nM bMMP2, 10 μM compound, FIG. 3B): specifically suppressed
Biotinylated MMP2 binding to β3CS-1 cells, corrected for lane loading ([11]; 10 μM compound, corrected by anti-actin mAb staining, FIG. 3B lane 2): reduced the binding of MMP2 to the β3CS-1 cells to the level observed in the absence αvβ3
Growth of CS-1 melanoma cells in vitro [12]: not affected
Effect on binding between MMP2 and TIMP2 [13]: not inhibited

Molecule: COC(=O)[C@H](CCCCNC(=O)CNC(=O)c1ccccc1)NC(=O)OCc1ccc(C(F)(F)F)cc1 [Compound 6, (S)-Methyl 6-[2-(benzoylamino)acetamido]-2-[(4-trifluoromethyl)benzyloxycarbonyl)hexanoate]
Effect on MMP2 binding to integrin αvβ3 [5]: slightly less active than Compound 1

Effect on MMP2 binding to integrin αvβ3 [5]: inactive
Molecule: COC(=O)[C@H](CCCCNC(=O)CNC(=O)COCC(=O)O)NC(=O)OCc1ccc(C(F)(F)F)cc1 [Compound 8]

Molecule: O=C(CNC(=O)c1cccc(C(=O)NCC(=O)NCCCC[C@H](NC(=O)c2ccccc2)C(=O)O)c1)NCCCC[C@H](NC(=O)c1ccccc1)C(=O)O [Compound 12, N,N′-Bis-[N-(-5-(S)-((benzoyl)amino)-5-(carboxy)pentyl)carboxamidomethyl]benzene-1,3-dicarboxamide]
Effect on MMP2-enhanced cell-mediated [3H]collagen IV degradation [1]: negligible effect
Effect on [3H]collagen IV degradation by purified active MMP2 in the absence of cells [2]: still able to degrade
Effect on MMP2 binding to integrin αvβ3 [5]: neither the control compound nor the control peptide cRADfV interfered
Effect on biotinylated MMP2 binding to β3-negative CS-1 cells [7]: not diminished
Effect on development of new blood vessels in bFGF-stimulated CAM [8]: ineffective

Effect on MMP2 binding to integrin αvβ3 [5]: lack of effect
Inhibition of bVN binding to immobilized integrin αvβ3 by peptide ([14]; 100 μM cyclic peptide, FIG. 2D): completely abolished
Effect on vitronectin binding to integrin αvβ3 ([14]; bVN 1 μg/ml, FIG. 2A): inhibited
Molecule: cRGDfV [reference compound]
Inhibition of [14C]-Compound 1 binding to integrin αvβ3 by peptide ([3]; 3 μM [14C]-Compound 1, 100 μM cyclic peptide, FIG. 2D): inability of the cRGDfV peptide to inhibit

— patent US6803383B2, “Inhibition of angiogenesis and tumor growth” (The Scripps Research Institute, priority 2000, dated 2004)
